The target of one test is T1, human COX-2 (Homo sapiens, UniProt P35354).
T1 construct: purchased Cayman Chemicals 701050
T1 sequence (P35354 18-604): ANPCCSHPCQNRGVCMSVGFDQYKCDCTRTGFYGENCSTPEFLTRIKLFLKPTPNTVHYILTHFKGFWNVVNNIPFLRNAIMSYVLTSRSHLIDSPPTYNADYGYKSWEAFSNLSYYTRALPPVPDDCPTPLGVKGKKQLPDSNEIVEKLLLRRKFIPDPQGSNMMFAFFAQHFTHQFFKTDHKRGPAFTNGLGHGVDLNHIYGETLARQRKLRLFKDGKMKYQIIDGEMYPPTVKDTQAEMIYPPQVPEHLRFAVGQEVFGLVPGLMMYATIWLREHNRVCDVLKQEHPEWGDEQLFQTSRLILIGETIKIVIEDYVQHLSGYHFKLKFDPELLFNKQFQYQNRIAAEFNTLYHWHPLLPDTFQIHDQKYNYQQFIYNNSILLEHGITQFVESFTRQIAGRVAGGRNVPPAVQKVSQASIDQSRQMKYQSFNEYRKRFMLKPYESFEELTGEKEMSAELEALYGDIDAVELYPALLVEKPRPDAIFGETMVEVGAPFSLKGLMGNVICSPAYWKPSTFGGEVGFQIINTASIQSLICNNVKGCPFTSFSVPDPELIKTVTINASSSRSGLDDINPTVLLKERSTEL
In words: Cyclooxygenase colorimetric inhibitor screening assay, COX-2.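 Further: peroxidase activity of COX-2 followed colorimetrically through formation of oxidized TMPD at 590 nm, with arachidonic acid as substrate, compounds tested from 0.001 to 50 µM.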 Format: biochemical. Particulars: human COX-2, colorimetric kit; read-out: hCOX-2; IC50.

In the next test the target is T2, ovine COX-1 (Ovis aries, UniProt P05979).
T2 construct: purchased Cayman Chemicals 701050
T2 sequence (P05979 25-600): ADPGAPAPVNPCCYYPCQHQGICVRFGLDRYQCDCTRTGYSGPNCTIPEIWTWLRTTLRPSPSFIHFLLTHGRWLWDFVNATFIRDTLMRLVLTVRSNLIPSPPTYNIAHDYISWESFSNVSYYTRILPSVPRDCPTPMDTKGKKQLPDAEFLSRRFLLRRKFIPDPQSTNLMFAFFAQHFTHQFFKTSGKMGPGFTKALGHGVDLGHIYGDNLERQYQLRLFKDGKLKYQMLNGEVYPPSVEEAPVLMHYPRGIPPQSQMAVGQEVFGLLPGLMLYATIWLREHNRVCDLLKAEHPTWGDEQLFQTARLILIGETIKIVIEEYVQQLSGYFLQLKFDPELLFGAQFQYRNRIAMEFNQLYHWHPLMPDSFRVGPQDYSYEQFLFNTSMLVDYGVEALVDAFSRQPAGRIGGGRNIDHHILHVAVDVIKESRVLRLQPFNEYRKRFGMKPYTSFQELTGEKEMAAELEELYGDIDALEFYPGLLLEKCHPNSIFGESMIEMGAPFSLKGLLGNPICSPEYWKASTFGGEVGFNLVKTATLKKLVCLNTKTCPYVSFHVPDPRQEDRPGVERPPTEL
In words: Cyclooxygenase colorimetric inhibitor screening assay, COX-1.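 Further: COX peroxidase activity read colorimetrically as oxidized TMPD at 590 nm, arachidonic acid as substrate, inhibitors tested at 0.001–50 µM from DMSO stocks.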 Type of test: biochemical.

We go through 1 compound from article PMC10384011, “m-Terphenylamines, Acting as Selective COX-1 Inhibitors, Block Microglia Inflammatory Response and Exert Neuroprotective Activity” (Molecules, 2023).

Where only a bound is given, the exact number is not on record here.

Description for human COX-2: (§1) Newly synthesized compounds were evaluated for their ability to inhibit ovine COX-1 or human COX-2 enzyme by measuring the extent (%) of enzyme activity inhibition at different concentrations (0.001, 0.01, 0.1, 1, 10, 50 μM). […] The assay kit measures the peroxidase component of COXs that is assayed colorimetrically by monitoring the appearance of oxidized N,N,N′,N′-tetramethyl-p-phenylenediamine (TMPD) a λ = 590 nm. […] Stock solutions of test compounds were dissolved in DMSO.
Description for ovine COX-1: as §1

As to `Cc1ccc(-c2cc(N)cc(-c3ccccc3)c2)cc1` [Compound 3b, 4-Methyl-5′-amino-m-terphenyl], the IC50 was over 50000 nM at human COX-2 and 1100 ± 180 nM at ovine COX-1 (ovine COX-1, colorimetric kit, triplicate, read-out: oCOX-1, IC50). In addition, the inhibition at 50 µM on ovine COX-1 (ovine COX-1, 50 µM, read-out: oCOX-1, % Inhibition at 50 µM (converted)) is 83%. Besides, at ovine COX-1 (ovine COX-1 vs human COX-2), the “COX-1 selectivity (in words)” value is reported as “complete selectivity towards COX-1”.
